In US20230250108A1, “TETRAHYDROISOQUINOLINE COMPOUNDS AND USE THEREOF” (JIANGSU SIMCERE PHARMACEUTICAL CO., LTD., priority 2020, published 2023):
pIC50: −log10 of the molar value. Counter-ions that a name gives are not always drawn. Like-named read-outs stand apart in the source and are kept apart here.

Experiments:
[1] = Hepatocellular metabolic stability test, human hepatocytes
Source text: (§2) Experimental materials: Human hepatocytes were purchased from Biopredic; mouse hepatocytes were purchased from BioIVT; acetonitrile and methanol were purchased from Merck & Co., Inc.; AOPI dyes were purchased from Nexcelom; dexamethasone was purchased from NIFDC; DMSO was purchased from Beijing Solarbio Science & Technology Co., Ltd.; DPBS (10×), GlutaMAX™-1 (100×) and recombinant human insulin were purchased form Gibco by Life Technologies; fetal bovine serum was purchased from Corning; formic acid was purchased from DIKMAPURE; Isotonic Percoll was purchased from GE Healthcare; alprazolam was purchased from Supelco; caffeine was purchased from ChromaDex.inc; and HEPES, tolbutamide and Williams' Medium E were purchased from Sigma.
(§3) The powder of a test substance was formulated with DMSO into a stock solution with a high concentration, which was diluted to a working solution of 100 μM with acetonitrile prior to use. The final concentration of the test substance was 1 μM.
(§4) 49.5 mL of Williams'E Medium and 0.5 mL of GlutaMAX were mixed as an incubation media. Hepatocyte thawing media and incubation media were placed in a 37° C. water-bath and pre-heated for at least 15 minutes prior to use. A tube of hepatocytes stored at an ultra-low temperature was taken and the hepatocytes were ensured to be at a frozen state at a low temperature prior to thawing. The hepatocytes were rapidly placed in a 37° C. water-bath and gently shaken until all the ice crystals were dispersed, and then after 70% ethanol was sprayed, the hepatocytes were transferred to a biosafety cabinet. The content of the tube was poured into a centrifugal tube containing 50 mL of thawing media and centrifuged at 100 g for 10 minutes. After centrifugation, the thawing media was aspirated, and a sufficient amount of incubation media was added to obtain a cell suspension with a cell density of about 1.5×10^6 cells/mL. The hepatocytes were counted, and the viable cell density was determined using Cellometer Vision, and the survival rate of the hepatocytes must be higher than 75%. The hepatocyte suspension was diluted by using the incubation media to a viable cell density of 0.5×10^6 viable cells/mL.
(§5) 247.5 μL of viable cell (human hepatocytes or mouse hepatocytes) suspension or media were transferred into a 96-well deep-well plate, and the deep-well plate was placed in a vortex incubator and pre-heated for 10 minutes. Incubation of all the samples was performed in parallel duplicate. Test substance (2.5 μL, 100 μM) was added into each well to start the reaction and the deep-well plate was placed in the vortex incubator again. The samples were incubated, and 25 μL of the suspension was taken at 0, 15, 30, 60, 90 and 120 minutes, respectively. 125 μL of acetonitrile containing internal standard (100 nM alprazolam, 200 nM caffeine, and 100 nM tolbutamide) was added to terminate the reaction. The mixture was vortexed for 10 minutes and centrifuged at 3220 g, 4° C. for 30 minutes. After centrifugation, 100 μL of the supernatant was transferred into the loading plate and 150 μL of pure water was added and mixed uniformly for LC-MS/MS analysis.
(§6) All the data calculation was performed by the Microsoft Excel software. The peak area was detected by extracting the ion chromatogram. The in vitro half-life (t1/2) of the parent drug was detected by performing linear fitting of the natural logarithm of elimination percent of the parent drug and time.
(§7) The in vitro half-life (t1/2) was calculated by means of the slope:

SDMA in Z-138 cells = assay: Inhibitory activity on SDMA in cells (immunofluorescent assay); type: cell-based; conditions: Homo sapiens, 48 h, 2 days, read-out: Inhibition of SDMA in cells IC50
Source text: Materials and cells: Z-138 cells were purchased from ATCC (USA); IMDM medium and penicillin-streptomycin were purchased from Sigma PLC. (USA); horse serum was purchased from Hyclone (USA); Hoechst antibodies were purchased from Invitrogen (USA); Alexa Fluor 488 goat anti-rabbit IgG antibodies were purchased from Invitrogen (USA); Anti-dimethyl-Arginine symmetric (SYM11) antibodies were purchased from Merck & Co., Inc. (USA); DPBS was purchased from Gibco (USA); Nonfat Dry milk was purchased from Cell Signaling Technology (USA); paraformaldehyde was purchased from Beijing Solarbio Science & Technology Co., Ltd.; 384-well plate and Echo 550 Liquid Handler were purchased from Labcyte Inc. (USA); and an ImageXpress Nano was purchased from Molecular Devices (USA).
(§1) Cell culture: Z-138 cells were cultured in an IMDM culture solution containing 10% Horse serum+1% penicillin−streptomycin at 37° C., 5% CO2. Cells in logarithmic growth phase were suitable for the experiment.
Immunofluorescent assay: The effects of the compounds on SDMA in Z-138 cells were detected by using immunofluorescence. The cells were adjusted to the concentration of 1*10^5/mL and 40 μL was inoculated in each well of the 384-well plate (4000/well) and equilibrated for 10-15 minutes at 37° C., 5% CO2. The compound was added into a 384-well plate by using the Echo 550 Liquid Handler with the final concentration of 0-300 nM (initial concentration: 300 nM, 3-fold dilution, for 10 points), and the DMSO content was 0.1%. The cell plate was placed at 37° C., 5% CO2 and incubated for 2 days. 40 μL of 8% paraformaldehyde was added into each well and incubated at room temperature for 30 minutes. The supernatant was discarded, the plate was washed with DPBS, and 40 μL of 0.5% PBST (phosphate buffer with Tween) was added into each well and incubated at room temperature for 60 minutes. The supernatant was discarded, the plate was washed with 0.05% PBST, and 40 μL of a blocking solution (1% Nonfat milk in 0.05% PBST) was added into each well and incubated at room temperature for 60 minutes. The supernatant was discarded, and 20 μL of the primary antibody (SYM11, diluted with a blocking solution at 1:500) was added into each well and maintained at 4° C. overnight. The supernatant was discarded, the plate was washed with 0.05% PBST, 20 μL of the secondary antibody (Alexa Fluor 488 goat anti-rabbit and Hoechst, diluted with a blocking solution at 1:1000 and 1:5000, respectively) was added to each well and incubated at room temperature for 60 minutes. The supernatant was discarded, the plate was washed with 0.05% PBST, and the fluorescent intensity was detected with ImageXpress Nano.

PRMT5/MEP50 = target: T1, PRMT5/MEP50 (Homo sapiens, UniProt O14744); assay: PRMT5 enzymatic activity inhibition experiment (AlphaScreen); type: biochemical
T1 construct: purchased BPS Bioscience Inc. (USA)
Source text: Materials: PRMT5/MEP50 proteins were purchased from BPS Bioscience Inc. (USA); Histone H4 Peptide substrate was purchased from Sangon Biotech (Shanghai) Co., Ltd.; Anti-Histone H4 (symmetric dimethyl R3) antibody—ChIP Grade was purchased from Abcam PLC. (USA); S-(5′-Adenosyl)-L-methionine chloride dihydrochloride was purchased from Sigma PLC. (USA); 384-well plate, AlphaScreen Streptavidin Donor beads, AlphaScreen Protein A Acceptor beads, and Envision 2104 multi-label Reader were purchased from Perkin-Elmer Instruments (USA) Corporation; and Echo 550 Liquid Handler was purchased from Labcyte Inc. (USA).
Enzymatic activity assay: The compounds were added into a 384-well plate by using the Echo 550 Liquid Handler with the final concentration of 0-1000 nM (initial concentration: 1000 nM, 3-fold dilution, for 10 points), and the DMSO content was 0.5%. 10 μL of a 2× PRMT5/MEP50 solution was added into each well and incubated at room temperature for 30 minutes. 10 μL of 2× PRMT5/MEP50 substrate solution was added to each well to start the reaction and incubated at room temperature for 60 minutes. A 6× detection reagent containing AlphaScreen Protein A Acceptor beads and Anti-Histone H4 (symmetric dimethyl R3) antibodies was prepared and 5 μL was added to each well. The plate was incubated at room temperature for 60 minutes. A 6× detection reagent containing AlphaScreen Streptavidin Donor beads was prepared and 5 μL was added to each well. The plate was incubated at room temperature for 60 minutes. The signal values were detected by using the Envision.

Z-138 cells = assay: Inhibitory activity on tumor cell proliferation (Cell-Titer Glo, 8 days); type: cell-based; conditions: Homo sapiens, 192 h, read-out: Inhibition of cell proliferation Z-138 IC50
Protocol: Materials and cells: Z-138 cells were purchased from ATCC (USA); IMDM medium and penicillin-streptomycin were purchased from Sigma PLC. (USA); horse serum was purchased from Hyclone (USA); 96-well plate was purchased from Corning (USA); and Cell-Titer Glo reagent was purchased from Promega (USA).
as §1
Detection of cell proliferation activity: The inhibitory activities of the compounds on the proliferation of Z-138 cells were detected by using the Cell-Titer Glo reagent. The concentrations of the cells were adjusted, and 180 μL was inoculated in each well of the 96-well plate (500/well) and equilibrated for 10-15 minutes at 37° C., 5% CO2. 20 μL of a culture solution containing the compounds was added into each well with the final concentration reaching 0-300 nM (initial concentration: 300 nM, 3-fold dilution, for 10 points), and the DMSO content was 0.1%. The cell plate was placed at 37° C., 5% CO2 and incubated for 8 days. Culture solution was replaced at day 4: 100 μL of the supernatant was slowly aspirated and 100 μL of a fresh culture solution containing the compounds was provided as a supplement while the concentrations of the compounds were held constant. The cell viability was detected by using the Cell-Titer Glo reagent.

[2] = Hepatocellular metabolic stability test, mouse hepatocytes
Source text: as §2, §3, §4, §5, §6, §7

in vitro [3] = conditions: mouse, hepatocytes
Source text: as §2, §3, §4, §5, §6, §7

in vitro [4] = conditions: human, hepatocytes
Source text: as §2, §3, §4, §5, §6, §7

[5] = PRMT5/MEP50, Histone H4 peptide substrate, read-out: Inhibition of enzymatic activity IC50

T1 sequence (O14744 2-637 limits assumed): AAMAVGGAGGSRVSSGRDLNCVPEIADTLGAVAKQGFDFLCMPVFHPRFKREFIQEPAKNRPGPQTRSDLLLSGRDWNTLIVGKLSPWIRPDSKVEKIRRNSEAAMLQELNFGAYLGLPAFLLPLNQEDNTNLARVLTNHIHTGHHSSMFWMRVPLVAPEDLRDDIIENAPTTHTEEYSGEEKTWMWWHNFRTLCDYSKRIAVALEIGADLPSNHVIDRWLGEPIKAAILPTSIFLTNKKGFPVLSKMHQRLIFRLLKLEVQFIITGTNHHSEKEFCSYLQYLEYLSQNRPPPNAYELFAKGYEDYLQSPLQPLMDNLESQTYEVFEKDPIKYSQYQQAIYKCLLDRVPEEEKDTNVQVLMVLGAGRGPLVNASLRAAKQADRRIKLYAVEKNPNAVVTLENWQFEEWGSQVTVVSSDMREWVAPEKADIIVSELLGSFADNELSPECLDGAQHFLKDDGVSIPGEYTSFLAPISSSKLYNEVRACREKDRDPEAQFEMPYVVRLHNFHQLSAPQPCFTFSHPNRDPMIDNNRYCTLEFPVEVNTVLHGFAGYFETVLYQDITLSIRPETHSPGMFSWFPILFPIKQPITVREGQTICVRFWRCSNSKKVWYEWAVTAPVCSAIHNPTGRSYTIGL
T1 sequence (Q9BQA1 2-342 partner limits assumed): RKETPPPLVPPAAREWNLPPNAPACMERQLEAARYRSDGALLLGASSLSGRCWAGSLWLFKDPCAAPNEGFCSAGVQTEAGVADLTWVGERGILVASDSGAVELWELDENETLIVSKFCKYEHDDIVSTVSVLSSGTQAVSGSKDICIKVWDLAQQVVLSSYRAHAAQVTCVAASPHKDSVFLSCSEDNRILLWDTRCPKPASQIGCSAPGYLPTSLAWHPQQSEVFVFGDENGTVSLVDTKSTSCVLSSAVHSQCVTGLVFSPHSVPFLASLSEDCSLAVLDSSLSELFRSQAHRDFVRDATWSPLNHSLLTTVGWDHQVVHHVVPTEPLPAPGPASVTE

| SMILES | half-life at 1 μM [1] | pIC50 (SDMA in Z-138 cells) | pIC50 (PRMT5/MEP50) | pIC50 (Z-138 cells) | half-life at 1 μM [2] | pIC50 (PRMT5/MEP50; [5]) | half-life at 1 μM (in vitro [3]) | half-life at 1 μM (in vitro [4]) |
| --- | --- | --- | --- | --- | --- | --- | --- | --- |
| CCN1CCN(C[C@@H](O)[C@@H]2Cc3ccccc3CN2)C(=O)c2ccc(C(=O)N3C4CCC3COC4)cc21.Cl [Compound 001, 8-(3-oxa-8-azabicyclo[3.2.1]octane-8-carbonyl)-1-ethyl-4-((R)-2-hydroxy-2-((S)-1,2,3,4-tetrahydroisoquinolin-3-yl)ethyl)-1,2,3,4-tetrahydro-5H-benzo[e][1,4]diazepin-5-one hydrochloride] | 24.5 h | 8.42 | 8.34 | 8.46 | 2.04 h | – | – | – |
| CCN1CCN(C[C@@H](O)[C@@H]2Cc3ccccc3CN2)C(=O)c2ccc(C(=O)N3CCC4(CC3)CC(C#N)C4)cc21 [Compound 003, 7-(1-ethyl-4-((R)-2-hydroxy-2-((S)-1,2,3,4-tetrahydroisoquinolin-3-yl)ethyl)-5-oxo-2,3,4,5-tetrahydro-1H-benzo[e][1,4]diazepine-8-carbonyl)-7-azaspiro[3.5]nonane-2-carbonitrile] | – | 9.10 | – | 8.92 | – | 8.69 | 1.97 h | 131 h |
| CCN1CCN(C[C@@H](O)[C@@H]2Cc3ccccc3CN2)C(=O)c2ccc(C(=O)N3C4CCC3CC(OC)C4)cc21.Cl (stereo partly drawn) [Compound 004, 1-ethyl-4-((R)-2-hydroxy-2-((S)-1,2,3,4-tetrahydroisoquinolin-3-yl)ethyl)-8-(3-methoxy-8-azabicyclo[3.2.1]octane-8-carbonyl)-1,2,3,4-tetrahydro-5H-benzo[e][1,4]diazepin-5-one hydrochloride] | 11.2 h | 8.85 | 8.34 | 8.73 | 0.871 h | – | – | – |
| COC1CC2CCC(C1)N2C(=O)c1ccc2c(c1)N(C)CCN(C[C@@H](O)[C@@H]1Cc3ccccc3CN1)C2=O.Cl (stereo partly drawn) [Compound 005, 4-((R)-2-hydroxy-2-((S)-1,2,3,4-tetrahydroisoquinolin-3-yl)ethyl)-8-(3-methoxy-8-azabicyclo[3.2.1]octane-8-carbonyl)-1-methyl-1,2,3,4-tetrahydro-5H-benzo[e][1,4]diazepin-5-one hydrochloride] | 5.61 h | 8.82 | 8.17 | 8.37 | 1.3 h | – | – | – |
| CCN1CCN(C[C@@H](O)[C@@H]2Cc3ccccc3CN2)C(=O)c2ccc(C(=O)N3CCC4(CCC(OC)CC4)CC3)cc21 [Compound 006, 1-ethyl-4-((R)-2-hydroxy-2-((S)-1,2,3,4-tetrahydroisoquinolin-3-yl)ethyl)-8-(9-methoxy-3-azaspiro[5.5]undecane-3-carbonyl)-1,2,3,4-tetrahydro-5H-benzo[e][1,4]diazepin-5-one hydrochloride] | – | 8.74 | – | 8.32 | – | 8.44 | – | – |
| COC1CC2CCC(C1)N2C(=O)c1ccc2c(c1)OCCN(C[C@@H](O)[C@@H]1Cc3ccccc3CN1)C2=O (stereo partly drawn) [Compound 008, 4-((R)-2-hydroxy-2-((S)-1,2,3,4-tetrahydroisoquinolin-3-yl)ethyl)-8-(3-methoxy-8-azabicyclo[3.2.1]octane-8-carbonyl)-3,4-dihydrobenzo[f][1,4]oxazepin-5(2H)-one] | – | – | – | 8.22 | – | 7.91 | – | – |
| COC1CC2(CCN(C(=O)c3ccc4c(c3)OCCN(C[C@@H](O)[C@@H]3Cc5ccccc5CN3)C4=O)CC2)C1 [Compound 009, 4-((R)-2-hydroxy-2-((S)-1,2,3,4-tetrahydroisoquinolin-3-yl)ethyl)-8-(2-methoxy-7-azaspiro[3.5]nonane-7-carbonyl)-3,4-dihydrobenzo[f][1,4]oxazepin-5(2H)-one] | – | 8.21 | – | 8.53 | – | 8.30 | – | – |
| CCN1CCN(C[C@@H](O)[C@@H]2Cc3ccccc3CN2)C(=O)c2ccc(C(=O)N3CCC4(CC3)CC(O)C4)cc21 [Compound 024, 1-ethyl-4-((R)-2-hydroxy-2-((S)-1,2,3,4-tetrahydroisoquinolin-3-yl)ethyl)-8-(2-hydroxy-7-azaspiro[3.5]nonane-7-carbonyl)-1,2,3,4-tetrahydro-5H-benzo[e][1,4]diazepin-5-one] | – | – | – | 7.97 | – | – | 0.588 h | 12.9 h |
